According to patent US20100119599A1 (ARCHER PHARMACEUTICALS, INC., priority 2006, published 2010):
Like-named read-outs stand apart in the source and are kept apart here.

Tests used:
[1] = system: Aβ1-40; assay: Measurement of Aβ1-40 in culture medium of 7W WT APP751 CHO cells by ELISA; assay type: cell-based, Chinese hamster; conditions: for activity at 5 µM: Cricetulus griseus, 5 μM test compound, CHO cells stably transfected with human APP751, culture medium, ELISA, control DMSO; for Aβ1-40 (% of control): CHO cells that overexpress APP751, zero = below the detection limit of the assay;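 for all read-outs here: 5 µM test compound but RI-coded compounds at 10 µM for 24 hours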
[2] = system: Aβ1-42; assay: Measurement of Aβ1-42 in culture medium of 7W WT APP751 CHO cells by ELISA; assay type: cell-based, Chinese hamster; conditions: for activity at 5 µM: Cricetulus griseus, 5 μM test compound, CHO cells stably transfected with human APP751, culture medium, ELISA, control DMSO; for Aβ1-42 (% of control): CHO cells that overexpress APP751, zero = below the detection limit of the assay;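 for Aβ1-42 (% of control): 5 µM test compound but RI-coded compounds at 10 µM for 24 hours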
[3] = Table 1, 0 = no detectable amount
[4] = Table 1, 0 = no detectable amount, read-out: Aβ1-42 (% of control)

Row | SMILES | activity at 5 µM [1, 3] [%] | activity at 5 µM [2, 4] [%] | Aβ1-40 (% of control) [1] | Aβ1-42 (% of control) [2] | other results
1 | CCOC(=O)C1=C(C)NC2=C(C(=O)CC(c3ccc(Cl)cc3)C2)C1c1cccc(Cl)c1Cl (stereo not drawn) [ST015068, ethyl 4-(2,3-dichlorophenyl)-7-(4-chlorophenyl)-2-methyl-5-oxo-1,4,6,7,8-pentahydroquinoline-3-carboxylate] | 46.3 | 83.8 | – | – | –
2 | CCOc1cc(C2C(C(=O)OC(C)C)=C(C)NC3=C2C(=O)CCC3)ccc1O (stereo not drawn) [ST015043, methylethyl 4-(3-ethoxy-4-hydroxyphenyl)-2-methyl-5-oxo-1,4,6,7,8-pentahydroquinoline-3-carboxylate] | 95.9 | 68.8 | – | – | –
3 | CC1=C(C(=O)OC2CCCCC2)C(c2ccccc2Cl)C2=C(CC(C)(C)CC2=O)N1 (stereo not drawn) [ST013235, cyclohexyl 4-(2-chlorophenyl)-2,7,7-trimethyl-5-oxo-1,4,6,7,8-pentahydroquinoline-3-carboxylate] | 0 | 43 | – | – | –
4 | CCC(C)OC(=O)C1=C(C)NC2=C(C(=O)CC(c3ccc(Cl)cc3)C2)C1c1ccc(Cl)c(Cl)c1 (stereo not drawn) [ST017095, methylpropyl 4-(3,4-dichlorophenyl)-7-(4-chlorophenyl)-2-methyl-5-oxo-1,4,6,7,8-pentahydroquinoline-3-carboxylate] | 61.3 | 37.1 | – | – | –
5 | CCOC(=O)C1=C(N)n2c(s/c(=C\c3ccncc3)c2=O)=C(C#N)C1c1ccncc1 (stereo not drawn) [ST024405, ethyl 5-amino-8-cyano-3-oxo-7-(4-pyridyl)-2-(4-pyridylmethylene)-4,7-dihydro-1,3-thiazolidino[3,2-a]pyridine-6-carboxylate] | – | – | 59.66 % of control | 77.41 % of control | –
6 | COc1ccc(C2CC(=O)C3=C(C2)NC(C)=C(C(=O)OC(C)C)C3c2ccc(F)cc2)cc1 (stereo not drawn) [ST017066, methylethyl 4-(4-fluorophenyl)-7-(4-methoxyphenyl)-2-methyl-5-oxo-1,4,6,7,8-pentahydroquinoline-3-carboxylate] | 24.9 | 57.4 | – | – | –
7 | COc1ccc(C2C(C(=O)OC(C)C)=C(C)NC3=C2C(=O)CC(c2ccccc2)C3)c(OC)c1 (stereo not drawn) [ST017229, methylethyl 4-(2,4-dimethoxyphenyl)-2-methyl-5-oxo-7-phenyl-1,4,6,7,8-pentahydroquinoline-3-carboxylate] | 63.1 | 98.7 | – | – | –
8 | CC1=C(C(=O)Nc2ccccc2)C(c2ccsc2)C(C#N)=C(SCC(=O)Nc2ccccc2C)N1 (stereo not drawn) [RI_48] | – | – | 86.5 % of control | 100 % of control | –
9 | CC1=C(C(=O)OC(C)C)C(c2ccc(Cl)cc2)C2=C(CC(C)(C)CC2=O)N1 (stereo not drawn) [ST017213, methylethyl 4-(4-chlorophenyl)-2,7,7-trimethyl-5-oxo-1,4,6,7,8-pentahydroquinoline-3-carboxylate] | 44.4 | 91.4 | – | – | –
10 | CC1=C(C(=O)OCCc2ccccc2)C(c2ccc(C(F)(F)F)cc2)C2=C(CCCC2=O)N1 (stereo not drawn) [ST052320, 2-phenylethyl 2-methyl-5-oxo-4-[4-(trifluoromethyl)phenyl]-1,4,6,7,8-pentahydroquinoline-3-carboxylate] | 9.44 | 0 | – | – | –
11 | CC1=C(C(=O)Nc2ccccc2)C(c2cccs2)C(C#N)=C(SCC(=O)NC2CCC2)N1 (stereo not drawn) [RI_24] | – | – | 80.8 % of control | 44.1 % of control | –
12 | COc1ccc(C2C(C(=O)OC3CCCC3)=C(C)NC3=C2C(=O)CC(C)(C)C3)c(OC)c1 (stereo not drawn) [ST013086, cyclopentyl 4-(2,4-dimethoxyphenyl)-2,7,7-trimethyl-5-oxo-1,4,6,7,8-pentahydroquinoline-3-carboxylate] | 0 | 73.7 | – | – | –
13 | CCCOc1ccccc1C1C(C(=O)OCCc2ccccc2)=C(C)NC2=C1C(=O)CCC2 (stereo not drawn) [ST015060, 2-phenylethyl 2-methyl-5-oxo-4-(2-propoxyphenyl)-1,4,6,7,8-pentahydroquinoline-3-carboxylate] | 0 | 0 | – | – | –
14 | CC1=C(C(=O)OCCOc2ccccc2)C(c2cccc(Cl)c2)C2=C(CCCC2=O)N1 (stereo not drawn) [ST015091, 2-phenoxyethyl 4-(3-chlorophenyl)-2-methyl-5-oxo-1,4,6,7,8-pentahydroquinoline-3-carboxylate] | 62.4 | 75.8 | – | – | –
15 | COC(=O)C1=C(C)NC(C)=C(C(=O)OC)C1c1cc(-c2ccc(Cl)cc2Cl)co1 [ST045410, methyl 4-[4-(2,4-dichlorophenyl)(2-furyl)]-5-(methoxycarbonyl)-2,6-dimethyl-1,4-dihydropyridine-3-carboxylate] | – | – | 75.13 % of control | 69.44 % of control | –
16 | CC1=C(C(=O)OCCc2ccccc2)C(c2ccc(Cl)c(Cl)c2)C2=C(CCCC2=O)N1 (stereo not drawn) [ST015098, 2-phenylethyl 4-(3,4-dichlorophenyl)-2-methyl-5-oxo-1,4,6,7,8-pentahydroquinoline-3-carboxylate] | 40.9 | 0 | – | – | –
17 | CC1=C(C(=O)OCc2ccccc2)C(c2cccc(Cl)c2Cl)C2=C(CC(C)(C)CC2=O)N1 (stereo not drawn) [ST013230, phenylmethyl 4-(2,3-dichlorophenyl)-2,7,7-trimethyl-5-oxo-1,4,6,7,8-pentahydroquinoline-3-carboxylate] | 0 | 69.5 | – | – | –
18 | N#CC1=C(N)n2c(s/c(=C/c3ccc(Cl)cc3Cl)c2=O)=C(C#N)C1c1ccc(Cl)cc1Cl (stereo not drawn) [ST003360, 5-amino-7-(2,4-dichlorophenyl)-2-[(2,4-dichlorophenyl)methylene]-3-oxo-4,7-dihydro-1,3-thiazolidino[3,2-a]pyridine-6,8-dicarbonitrile] | – | – | 63.37 % of control | 72.55 % of control | –
19 | Cc1c(Cl)cccc1NC(=O)CSC1=C(C#N)C(c2cccs2)C2=C(CC(C)(C)CC2=O)N1 (stereo not drawn) [ST051161, N-(3-chloro-2-methylphenyl)-2-(3-cyano-7,7-dimethyl-5-oxo-4-(2-thienyl)(2-1,4,6,7,8-pentahydroquinolylthio))acetamide] | 13 | 25.4 | – | – | –
20 | Cc1cc(=O)cc(C)n1NC(N)=S [ST002431, 1-[(aminothioxomethyl)amino]-2,6-dimethylhydropyridin-4-one] | – | – | – | – | activity at 5 µM ([1]; Table 3): 16.9%; activity at 5 µM ([2]; Table 3, read-out: Aβ-42 (% of control)): 97.6%
21 | N#CC1=C(N)n2c(s/c(=C/c3cccc(Br)c3)c2=O)=C(C#N)C1c1cccc(Br)c1 (stereo not drawn) [ST024841, 5-amino-7-(3-bromophenyl)-2-[(3-bromophenyl)methylene]-3-oxo-4,7-dihydro-1,3-thiazolidino[3,2-a]pyridine-6,8-dicarbonitrile] | – | – | 61.78 % of control | 95.58 % of control | –
22 | COc1ccc(C2CC(=O)C3=C(C2)NC(C)=C(C(=O)OC(C)C)C3c2ccc(OCc3ccccc3)cc2)cc1 (stereo not drawn) [ST016961, methylethyl 7-(4-methoxyphenyl)-2-methyl-5-oxo-4-[4-(phenylmethoxy)phenyl]-1,4,6,7,8-pentahydroquinoline-3-carboxylate] | 41.8 | 89.5 | – | – | –
23 | CC1=C(C(=O)OCCOc2ccccc2)C(c2coc3ccc(C)cc3c2=O)C2=C(CC(C)(C)CC2=O)N1 (stereo not drawn) [ST052392, 2-phenoxyethyl 2,7,7-trimethyl-4-(6-methyl-4-oxochromen-3-yl)-5-oxo-1,4,6,7,8-pentahydroquinoline-3-carboxylate] | 28.1 | 11.9 | – | – | –
24 | CCc1cccc(NC(=O)CSC2=C(C#N)C(c3cc4cccnc4s3)C(C(=O)Nc3ccccc3)=C(C)N2)c1 (stereo not drawn) [RI_84] | – | – | 64.2 % of control | 44.5 % of control | –
25 | CCOC(=O)C1=C(C)NC2=C(C(=O)CCC2)C1c1ccc(OCc2ccccc2Cl)c(OC)c1 (stereo not drawn) [ST028591, ethyl 4-{4-[(2-chlorophenyl)methoxy]-3-methoxyphenyl}-2-methyl-5-oxo-1,4,6,7,8-pentahydroquinoline-3-carboxylate] | 98.3 | 69.6 | – | – | –
26 | CC1=C(C(=O)Nc2ccc(Cl)cc2)C(c2ccccc2)C(C#N)=C(SCC(=O)Nc2cccc(C)c2)N1 (stereo not drawn) [ST051153, 2-{5-[N-(4-chlorophenyl)carbamoyl]-3-cyano-6-methyl-4-phenyl(2-1,4-dihydropyridylthio)}-N-(3-methylphenyl)acetamide] | – | – | 4.933 % of control | 0 % of control | –
27 | CC1=C(C(=O)OC2CCCCC2)C(c2ccc3c(c2)OCO3)C2=C(CC(C)(C)CC2=O)N1 (stereo not drawn) [ST216920, cyclohexyl 4-(2H-benzo[3,4-d]1,3-dioxolen-5-yl)-2,7,7-trimethyl-5-oxo-1,4,6,7,8-pentahydroquinoline-3-carboxylate] | 1.4 | 3.82 | – | – | –
28 | CCN(CC)c1ccc(C2C(C(=O)OC)=C(C)NC3=C2C(=O)CC(c2ccccc2)C3)cc1 (stereo not drawn) [ST013129, methyl 4-[4-(diethylamino)phenyl]-2-methyl-5-oxo-7-phenyl-1,4,6,7,8-pentahydroquinoline-3-carboxylate] | 64.3 | 90.6 | – | – | –
29 | COc1cccc(/C=c2/sc3n(c2=O)C(N)=C(C#N)C(c2cccc(OC)c2)C=3C#N)c1 (stereo not drawn) [ST215713, 5-amino-7-(3-methoxyphenyl)-2-[(3-methoxyphenyl)methylene]-3-oxo-4,7-dihydro-1,3-thiazolidino[3,2-a]pyridine-6,8-dicarbonitrile] | – | – | 69.2 % of control | 80.48 % of control | –
30 | CC1=C(C(=O)OCCOc2ccccc2)C(c2ccncc2)C2=C(CC(c3ccccc3)CC2=O)N1 (stereo not drawn) [ST017084, 2-phenoxyethyl 2-methyl-5-oxo-7-phenyl-4-(4-pyridyl)-1,4,6,7,8-pentahydroquinoline-3-carboxylate] | 54.3 | 84.7 | – | – | –
